The assay concerns Mut-p53. Put plainly: Total activity score over combined assays (Table 8). Details: scale not given here. The following applies: for Activity Score: Table 10 summary of activity of the peptides tested; for AS (Activity Score): total score of Table 7; for PCR, activity score / Conformation, activity score: Table 8; for PCR, activity score: head span not shown; for Conformation, activity score: the 14 score columns c4-c17 stand under the heads Conformation, DNA binding, Viability, PCR.

53 substances from patent publication US11028127B2, “Peptides capable of reactivating p53 mutants” (Yeda Research and Development Co. Ltd., priority 2013, dated 2021) can be followed below.

Where no end group is shown, it is not given here. [ ]: non-standard residue; d: D form. The star is where a group is joined. Myristoyl = CCCCCCCCCCCCCC(=O)*

As to pCAP209 (HTPHPPVARTSPLQTPRR), the “Activity Score” value turned out to be 0.

As to pCAP324 (SHDFPHREPRPERR), the “Activity Score” value is listed as 0.

On to pCAP77 (SEYLCSSLDAAG), for which the “Activity Score” value is recorded as 0 and the “AS (Activity Score)” value is listed as 0.

Consider pCAP251 (RLRRVILRSYHE), for which the “Activity Score” value is reported as 3.

As for pCAP220 (STTHPHPGTSAPEPATRRR), the “Activity Score” value stood at 6.

As for pCAP125 (ELGLHRH), the “Activity Score” value came to 0 and the “AS (Activity Score)” value was 0.

As to pCAP31 (PPYSQFLQWYLS), the “Activity Score” value came out at 0 and the “AS (Activity Score)” value is 0.

As for pCAP277 (DQPYPHRRIR), the “Activity Score” value worked out at 3.

Regarding pCAP21 (NHPWQFPNRWTV), the “Activity Score” value turned out to be 29 and the “AS (Activity Score)” value was 29.

pCAP274 (LRDPHPPERRIR): the “Activity Score” value stood at 0.

For pCAP75 (TRILCIVRKKRRQRRRRGDR), the “Activity Score” value was 32 and the “AS (Activity Score)” value stood at 32.

For the substance pCAP82 (QIPHRSSTALQL), the “Activity Score” value is 6 and the “AS (Activity Score)” value is 6.

pCAP51 (AILTLILRRVIWP): the “Activity Score” value came out at 4 and the “AS (Activity Score)” value is listed as 4.

pCAP260 (RRTFIRHRIDSTEVIYQDED): the “PCR, activity score” value is on record as 6; the “Conformation, activity score” value worked out at 4; the “Activity Score” value is 0.

Turning to pCAP35 (GAMHLPWHMGTL), the “Activity Score” value amounted to 28 and the “AS (Activity Score)” value was 28.

As to pCAP272 (RRPHNLHHD), the “Activity Score” value came out at 0.

For pCAP136 (SILTLRLRRLRRRRRRRR), the “Activity Score” value is recorded as 14 and the “AS (Activity Score)” value is 14.

For pCAP290 (RYKEPRITPRE), the “Activity Score” value is 6.

For the substance pCAP304 (Myristoyl-RRIRILMFLIGCGRV), the “Activity Score” value came to 0.

With pCAP64 (APSIFTPHAWRQ), the “Activity Score” value turned out to be 2 and the “AS (Activity Score)” value stood at 2.

Consider pCAP206 (RRRSHSQENVDQDTDE), for which the “PCR, activity score” value turned out to be 6 and the “Activity Score” value is 19.

pCAP231 (HRTQSTLILFIRRGRET): the “Activity Score” value stood at 9.

Consider pCAP317 (RRDIHTIHPFYQ), for which the “PCR, activity score” value is 3; the “Conformation, activity score” value is reported as 5; the “Activity Score” value amounted to 43.

Regarding pCAP208 (RRIRSGGKDHAWTPLHENH), the “Activity Score” value is on record as 0.

As to pCAP173 (RLRRL), the “Activity Score” value is reported as 0 and the “AS (Activity Score)” value is recorded as 0.

With pCAP146 (HANLHHTRRRRRRRRRRR), the “Activity Score” value was 11 and the “AS (Activity Score)” value stood at 11.

pCAP219 (SYRHYSDHWEDRRR): the “Activity Score” value came to 1.

On to pCAP271 (SPHPPYSPHPPYSPHPPYP), for which the “Activity Score” value was 0.

In the case of pCAP83 (HSSHHHPVHSWN), the “Activity Score” value is on record as 25 and the “AS (Activity Score)” value is recorded as 25.

Regarding “pCAP159 ([dR][dR][dR][dR][dR][dR][dR][dR]G[dL][dR]G[dR][dR][dI][dF][dL][dI][dF][dS])”, the “Activity Score” value was 53 and the “AS (Activity Score)” value came to 53.

As to pCAP201 (HPTHPIRLRDNLTR), the “Activity Score” value was 3.

As to pCAP28 (HTDSHPHHHHPH), the “Activity Score” value came to 24 and the “AS (Activity Score)” value came out at 24.

With pCAP286 (HDFHDYLERR), the “Activity Score” value was 4.

pCAP111 (SNIHHQV): the “Activity Score” value amounted to 5 and the “AS (Activity Score)” value was 5.

For the substance pCAP161 (HNAH), the “Activity Score” value was determined as 29 and the “AS (Activity Score)” value is given as 29.

In the case of pCAP69 (SILTLSRRRRRRRRRR), the “Activity Score” value is reported as 0 and the “AS (Activity Score)” value is 0.

Turning to pCAP68 (YRRLLIGMMWRRRRRRRRRRR), the “Activity Score” value is given as 39 and the “AS (Activity Score)” value is given as 39.

Regarding pCAP255 (DPEPPRYLPPPPERR), the “Activity Score” value was found to be 0.

With pCAP145 (HSSHHHPVHSWNRRRRRRR), the “Activity Score” value was determined as 7 and the “AS (Activity Score)” value worked out at 7.

Turning to pCAP227 (Myristoyl-RRKILFIRLMHNKH), the “PCR, activity score” value is given as 4; the “Conformation, activity score” value is 4; the “Activity Score” value worked out at 67.

Take pCAP141 (SWQALALYAAGWRRRRRR): the “Activity Score” value was found to be 29 and the “AS (Activity Score)” value is given as 29.

As to pCAP143 (IPMNFTSHSLRQRRRRRRRRR), the “Activity Score” value came to 6 and the “AS (Activity Score)” value worked out at 6.

As for pCAP57 (LMSNAQY), the “Activity Score” value came to 8 and the “AS (Activity Score)” value is recorded as 8.

Turning to pCAP246 (RRRLDDEDVQTPTPSEYQN), the “Activity Score” value is 5.

Consider pCAP98 (HSSGHNFVLVRQ), for which the “Activity Score” value is recorded as 2 and the “AS (Activity Score)” value was found to be 2.

For the substance pCAP252 (RRVILRSYDGGHSTPHPD), the “Activity Score” value is listed as 0.

pCAP230 (RKRGKSYAFFVPPSESKERW): the “PCR, activity score” value is 6; the “Conformation, activity score” value was 3; the “Activity Score” value stood at 63.

Consider pCAP258 (FLIGPDRLIRSR), for which the “PCR, activity score” value came to 4 and the “Activity Score” value is 23.

As to pCAP313 (Myristoyl-RRREILHPEFRILYE), the “Activity Score” value is reported as 8.

Regarding “pCAP308 (Myristoyl-RRICRFIRICRVR; cysteine pairing not given here)”, the “PCR, activity score” value was 6 and the “Activity Score” value was 40.

As to pCAP49 (TRILCIVMM), the “Activity Score” value came to 8 and the “AS (Activity Score)” value was found to be 8.

Regarding pCAP241 (LIGLSTSPRPRIIR), the “Activity Score” value came out at 0.

Consider pCAP114 (AISHHTR), for which the “Activity Score” value is 0 and the “AS (Activity Score)” value is 0.
